# Several values for one entry are separate records, joined by “and”; a condition that tells them apart may be missing. Equal values may be shown once. Read-outs that look alike come from different tables or passages of the source.
# Legend:
# [1] = molecular target: T1, PRDM9 (amino acids: 195–415) (Homo sapiens, UniProt Q9NQV7); assay: PRDM9 methyltransferase activity assay (3H-SAM scintillation proximity assay); assay type: biochemical
# T1 construct: PRDM9 (amino acids: 195–415)
# T1 sequence (Q9NQV7 195-415): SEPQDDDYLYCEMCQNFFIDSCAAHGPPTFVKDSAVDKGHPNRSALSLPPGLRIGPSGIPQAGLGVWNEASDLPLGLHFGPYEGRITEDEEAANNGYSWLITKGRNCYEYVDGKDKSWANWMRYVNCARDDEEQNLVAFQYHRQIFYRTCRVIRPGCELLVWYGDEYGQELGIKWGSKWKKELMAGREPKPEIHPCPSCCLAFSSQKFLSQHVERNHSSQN
# Protocol: Methyltransferase activity assays for PRDM9 (amino acids: 195–415) were performed by monitoring the incorporation of tritium-labeled methyl group from ^3H-SAM to H3 (1–25) peptide using scintillation proximity assay (SPA). The enzymatic reactions were performed at 23 °C with 30 min incubation in 20 mM Tris-HCl (pH 7.5), 5 mM DTT, 0.01% Triton X-100 and 1% DMSO containing 71 μM of SAM (5 μM of ^3H-SAM), 4 μM of biotinylated H3 (1–25) peptide and 5 nM of PRDM9. For PRDM7, reactions were performed at 23 °C with 90 min incubation in 20 mM BTP pH 9.0, 5 mM DTT, 0.01% Triton X-100 and 1% DMSO containing 900 μM of SAM (5 μM of ^3H-SAM), 4 μM of biotinylated H3 (1–25) peptide and 100 nM of enzyme. […] To stop the reactions, 10 μL of 7.5 M guanidine hydrochloride was added to 10 μL of reaction mixture, followed by 60 μL of buffer (20 mM Tris, pH 8.0), mixed, and transferred to a 384-well streptavidin coated Flash-plate. After mixing, the mixtures in Flash-plate were incubated for 2 h, and the CPM counts were measured using TopCount plate reader. All enzymatic reactions were performed in triplicate, and IC50 values were determined by fitting the data to Four Parameter Logistic equation using the GraphPad Prism software.
# [2] = tested on: CAL851; assay: CelltiterGlo viability cell assay; assay type: cell-based; settings: up to 30 μM; days 3 and 6; Prdm9 expressing line
# Protocol: (§1) Supplementary Figure 13. […] Viability of
# (§2) (a) Multiple Myeloma lines and (b) Breast Cancer cell lines following 3 or 6 days treatment with […]
# (§3) manufacturer’s instructions as described in the Supplementary methods. Data are normalized to DMSO control. N=3 biological replicates, +/- SEM. Source data are provided as a Source Data […]
# (§4) CelltiterGlo viability cell assay
# (§5) Cells were seeded in 96 well plates at per-well densities of 10000 (MDA-MB436, ATCC-HTB130), 15000 (8226, kind gift from Rodger Tiedemann, Princess Margaret Cancer Centre), […]
# (§6) kind gift from Rodger Tiedemann, Princess Margaret Cancer Centre) and 50000 (CAL851, kind gift from Mathieu Lupien, Princess Margaret Cancer Centre) and were treated at increasing concentrations of compounds ranging from 0.01 μM to 30 μM and assessed for proliferation using CelltiterGlo (Promega) following manufacturer’s instructions, as readout on days 3 and 6 as indicated. All cell lines were mycoplasma negative, as determined by MycoAlert™ Mycoplasma Detection Kit(Lonza). […]
# [3] = tested on: RPMI-8226; assay: CelltiterGlo viability cell assay; assay type: cell-based; settings: up to 30 μM; days 3 and 6; matched control line
# Protocol: as §1, §2, §3, §4, §5, §6
# [4] = tested on: SKMM2; assay: CelltiterGlo viability cell assay; assay type: cell-based; settings: up to 30 μM; days 3 and 6; Prdm9 expressing line
# Protocol: as §1, §2, §3, §4, §5, §6
smiles,measurement,setting,value
COc1cc(OC)cc(-c2noc(N3CCN(C)C4(CCN(c5ccnc(C)c5)CC4)C3)n2)c1 [MRK-740],"PRDM9-Activity %, single experiments","[1]; 0.00305176 µM compound, 0.00305176 µM",94.4267% and 95.25% and 97.1828% and 103.784% and 103.017%
same,activity at 0.00305176 µM,"[1]; 0.00305176 µM compound, n=6, read-out: PRDM9-Activity %, Average",97.6%
same,activity at 0.00305176 µM,"[1]; 0.00305176 µM compound, read-out: PRDM9-Activity %, single experiments",91.9%
same,"PRDM9-Activity %, single experiments","[1]; 0.00610352 µM compound, 0.00610352 µM",85.0663% and 85.348% and 95.7626% and 97.3747% and 91.3487%
same,activity at 0.00610352 µM,"[1]; 0.00610352 µM compound, n=6 MRK-740, n=3 MRK-740-NC, read-out: PRDM9-Activity %, Average",90%
same,activity at 0.00610352 µM,"[1]; 0.00610352 µM compound, read-out: PRDM9-Activity %, single experiments",84.8%
same,"PRDM9-Activity %, single experiments","[1]; 0.012207 µM compound, 0.012207 µM",78.4578% and 80.6028% and 86.1288% and 97.1828% and 87.357%
same,activity at 0.012207 µM,"[1]; 0.012207 µM compound, n=6 MRK-740, n=3 MRK-740-NC, read-out: PRDM9-Activity %, Average",84.8%
same,activity at 0.012207 µM,"[1]; 0.012207 µM compound, read-out: PRDM9-Activity %, single experiments",79.3%
same,"PRDM9-Activity %, single experiments","[1]; 0.0244141 µM compound, 0.0244141 µM",75.966% and 79.6061% and 75.3435% and 72.6952% and 77.5697%
same,activity at 0.0244141 µM,"[1]; 0.0244141 µM compound, n=6 MRK-740, n=3 MRK-740-NC, read-out: PRDM9-Activity %, Average",75.8%
same,activity at 0.0244141 µM,"[1]; 0.0244141 µM compound, read-out: PRDM9-Activity %, single experiments",73.4%
same,"PRDM9-Activity %, single experiments","[1]; 0.0488281 µM compound, 0.0488281 µM",59.9538% and 62.5322% and 63.7138% and 61.8331% and 62.9462%
same,activity at 0.0488281 µM,"[1]; 0.0488281 µM compound, n=6 MRK-740, n=3 MRK-740-NC, read-out: PRDM9-Activity %, Average",62.6%
same,activity at 0.0488281 µM,"[1]; 0.0488281 µM compound, read-out: PRDM9-Activity %, single experiments",64.9%
same,"PRDM9-Activity %, single experiments","[1]; 0.0976562 µM compound, 0.0976562 µM",47.0617% and 46.4983% and 51.163% and 50.5105% and 50.3953%
same,activity at 0.0976562 µM,"[1]; 0.0976562 µM compound, n=6 MRK-740, n=3 MRK-740-NC, read-out: PRDM9-Activity %, Average",49%
same,activity at 0.0976562 µM,"[1]; 0.0976562 µM compound, read-out: PRDM9-Activity %, single experiments",48.6%
same,"PRDM9-Activity %, single experiments","[1]; 0.195312 µM compound, 0.195312 µM",35.2529% and 35.7729% and 39.7252% and 37.4223% and 38.9192%
same,activity at 0.195312 µM,"[1]; 0.195312 µM compound, n=6 MRK-740, n=3 MRK-740-NC, read-out: PRDM9-Activity %, Average",36.7%
same,activity at 0.195312 µM,"[1]; 0.195312 µM compound, read-out: PRDM9-Activity %, single experiments",33%
same,"PRDM9-Activity %, single experiments","[1]; 0.390625 µM compound, 0.390625 µM",22.6425% and 27.2793% and 26.6754% and 26.8289% and 30.4368%
same,activity at 0.390625 µM,"[1]; 0.390625 µM compound, n=6 MRK-740, n=3 MRK-740-NC, read-out: PRDM9-Activity %, Average",26.6%
same,activity at 0.390625 µM,"[1]; 0.390625 µM compound, read-out: PRDM9-Activity %, single experiments",25.4%
same,"PRDM9-Activity %, single experiments","[1]; 0.78125 µM compound, 0.78125 µM",15.1455% and 15.3839% and 20.1505% and 16.3507% and 20.304%
same,activity at 0.78125 µM,"[1]; 0.78125 µM compound, n=6 MRK-740, n=3 MRK-740-NC, read-out: PRDM9-Activity %, Average",17.5%
same,activity at 0.78125 µM,"[1]; 0.78125 µM compound, read-out: PRDM9-Activity %, single experiments",17.8%
same,"PRDM9-Activity %, single experiments","[1]; 1.5625 µM compound, 1.5625 µM",9.274% and 10.0537% and 12.7044% and 15.0841% and 15.1608%
same,activity at 1.5625 µM,"[1]; 1.5625 µM compound, n=6 MRK-740, n=3 MRK-740-NC, read-out: PRDM9-Activity %, Average",12%
same,activity at 1.5625 µM,"[1]; 1.5625 µM compound, read-out: PRDM9-Activity %, single experiments",9.56%
same,"PRDM9-Activity %, single experiments","[1]; 3.125 µM compound, 3.125 µM",7.757% and 8.32% and 10.555% and 9.672% and 9.096%
same,activity at 3.125 µM,"[1]; 3.125 µM compound, n=6 MRK-740, n=3 MRK-740-NC, read-out: PRDM9-Activity %, Average",8.8%
same,activity at 3.125 µM,"[1]; 3.125 µM compound, read-out: PRDM9-Activity %, single experiments",7.39%
same,"PRDM9-Activity %, single experiments","[1]; 6.25 µM compound, 6.25 µM",4.5935% and 6.024% and 7.753% and 9.173% and 6.448%
same,activity at 6.25 µM,"[1]; 6.25 µM compound, n=6 MRK-740, n=3 MRK-740-NC, read-out: PRDM9-Activity %, Average",6.57%
same,activity at 6.25 µM,"[1]; 6.25 µM compound, read-out: PRDM9-Activity %, single experiments",5.42%
same,"PRDM9-Activity %, single experiments","[1]; 12.5 µM compound, 12.5 µM",3.185% and 3.8568% and 5.834% and 4.491% and 4.606%
same,activity at 12.5 µM,"[1]; 12.5 µM compound, n=6 MRK-740, n=3 MRK-740-NC, read-out: PRDM9-Activity %, Average",4.37%
same,activity at 12.5 µM,"[1]; 12.5 µM compound, read-out: PRDM9-Activity %, single experiments",4.27%
same,"PRDM9-Activity %, single experiments","[1]; 25 µM compound, 25 µM",2.7301% and 2.167% and 2.752% and 4.337% and 5.373% and 4.529%
same,activity at 25 µM,"[1]; 25 µM compound, n=6 MRK-740, n=3 MRK-740-NC, read-out: PRDM9-Activity %, Average",3.65%
same,"PRDM9-Activity %, single experiments","[1]; 50 µM compound, 50 µM",2.405% and 1.7984% and 3.488% and 4.913% and 5.45% and 4.529%
same,activity at 50 µM,"[1]; 50 µM compound, n=6 MRK-740, n=3 MRK-740-NC, read-out: PRDM9-Activity %, Average",3.76%
same,Activity %,"[1]; PRDM9, 1µM compound, Exp1, Exp2, 1 µM",11%
same,activity at 1 µM,"[1]; PRDM9, 1µM compound, Exp1, Exp2, read-out: Activity %",10%
same,Activity %,"[1]; PRDM9, 10µM compound, Exp1, Exp2, 10 µM",2.5%
same,activity at 10 µM,"[1]; PRDM9, 10µM compound, Exp1, Exp2, read-out: Activity %",3%
same,IC50,"[1]; biotinylated H3 (1–25) peptide, balanced conditions, mean ± standard deviation",80 ± 16 nM
same,Effect on proliferation (in words),[2],did not have any significant effect
same,Effect on proliferation (in words),[3],did not have any significant effect
same,Effect on proliferation (in words),[4],did not have any significant effect

# — PMC6917776, “Discovery of a chemical probe for PRDM9” (Nature Communications, 2019)
